Reference: patent publication US5439905A, “Thienodiazepine compounds and their use” (Yoshitomi Pharmaceutical Industries, Ltd., priority 1993, dated 1995)
Read-outs that look alike come from different tables or passages of the source.

Key:
[1] = biological target: T1, CCK receptor (pancreas) (Canis lupus familiaris, UniProt Q5D0K2); test: CCK receptor-binding, pancreas (inhibition of 125I-CCK-8 binding); design: species or system male mongrel adult dog
T1 construct: the suspension was used as a receptor source; from tissue; host or cells: dog pancreas membranes
T1 sequence (Q5D0K2 1-428): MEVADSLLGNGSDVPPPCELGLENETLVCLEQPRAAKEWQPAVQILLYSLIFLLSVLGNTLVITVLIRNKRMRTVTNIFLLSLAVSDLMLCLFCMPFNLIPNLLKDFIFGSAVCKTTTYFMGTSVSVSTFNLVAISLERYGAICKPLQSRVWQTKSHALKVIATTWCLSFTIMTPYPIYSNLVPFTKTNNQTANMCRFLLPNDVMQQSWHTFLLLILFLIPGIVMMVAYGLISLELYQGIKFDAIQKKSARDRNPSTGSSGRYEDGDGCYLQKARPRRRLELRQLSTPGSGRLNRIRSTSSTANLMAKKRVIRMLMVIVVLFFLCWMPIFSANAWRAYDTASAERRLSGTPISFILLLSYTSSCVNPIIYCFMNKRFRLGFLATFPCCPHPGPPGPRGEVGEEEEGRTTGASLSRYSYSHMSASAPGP
Experimental: The entire pancreas of a male mongrel adult dog was extracted and the fat tissues thereof were removed. The residual portion was homogenized in 50 mM Tris hydrochloride (pH 7.5) (Blinkman.cndot.Polytron PT20). After the filtration with nylon cloth (120 mesh) and subsequent centrifugation (50,000×g, 12 minutes), the obtained sediment was homogenized in a Tris buffer solution in the same manner as mentioned above and the homogenate was centrifuged. The obtained sediment was suspended in a buffer solution for binding assay (5 mM magnesium chloride, 5 mM dithiothreitol, 2 mg/ml bovine serum albumin, 0.1 mg/ml bacitracin, and 50 mM Tris hydrochloride, pH 7.2) containing 0.14 mg/ml trypsin-inhibitor (soy bean), and the suspension was used as a receptor source.

[2] = biological target: T2, CCK receptor (brain); test: CCK receptor-binding, brain (inhibition of 125I-CCK-8 binding)
T2 construct: brain; from tissue

[3] = dog pancreas membranes, 125I-CCK-8, 20° C., 30 minutes, pH 7.2, read-out: CCK binding, IC50, pancreas

T2 sequence (P32239 whole entry): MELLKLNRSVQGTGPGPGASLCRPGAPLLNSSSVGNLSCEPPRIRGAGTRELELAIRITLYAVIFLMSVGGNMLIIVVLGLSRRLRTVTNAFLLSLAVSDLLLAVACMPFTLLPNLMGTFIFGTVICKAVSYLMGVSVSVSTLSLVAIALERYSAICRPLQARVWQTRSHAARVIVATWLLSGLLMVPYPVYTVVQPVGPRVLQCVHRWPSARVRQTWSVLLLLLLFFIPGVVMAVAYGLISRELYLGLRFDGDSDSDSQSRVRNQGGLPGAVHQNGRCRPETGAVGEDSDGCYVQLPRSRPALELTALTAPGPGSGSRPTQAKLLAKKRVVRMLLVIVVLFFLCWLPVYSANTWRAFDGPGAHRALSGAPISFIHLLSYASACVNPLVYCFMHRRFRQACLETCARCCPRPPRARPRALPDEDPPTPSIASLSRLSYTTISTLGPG

Molecule	IC50 [1] [nM]	IC50 [2] [nM]	IC50 [1, 3] [nM]
CCc1cc2c(s1)N(C)C(=O)C(NC(=O)Nc1cccc(C)c1)N=C2c1ccccc1Cl (stereo not drawn) [Compound A, 4-(2-chlorophenyl)-2-ethyl-8-methyl-6-(3-(3-methylphenyl)ureido)-8H-6,7-dihydro-thieno[3,2-f]-[1,4]diazepin-7-one]	11	31	
CCc1cc2c(s1)-n1c(C)nnc1C(NC(=O)Nc1cccc(C)c1)N=C2c1ccccc1Cl (stereo not drawn) [Compound B, 4-(2-chlorophenyl)-2-ethyl-9-methyl-6-(3-(3-methylphenyl)ureido)-6H-thieno[3,2-f][1,2,4]-triazolo[4,3-a][1,4]diazepine]	1.2	10	
CCK-4 [reference compound]			800
CCK-8: CCK-8 which consists of 8 amino acids at the C terminus (of cholecystokinin); control compound [reference compound]			0.4
